The target of assay [1] is T1, Adenosylhomocysteinase (Homo sapiens, UniProt P23526). Briefly: Inhibitory activity against S-adenosyl-L-homocysteine hydrolase was determined.
Assay [2] addresses T1, Adenosylhomocysteinase. Briefly: Inhibitory activity against S-adenosyl-L-homocysteine hydrolase was determined in hydrolysis direction.
Assay [3] concerns the target T1, Adenosylhomocysteinase. Briefly: Inhibitory activity against S-adenosyl-L-homocysteine hydrolase was determined in synthetic directions.

T1 sequence (P23526 whole entry): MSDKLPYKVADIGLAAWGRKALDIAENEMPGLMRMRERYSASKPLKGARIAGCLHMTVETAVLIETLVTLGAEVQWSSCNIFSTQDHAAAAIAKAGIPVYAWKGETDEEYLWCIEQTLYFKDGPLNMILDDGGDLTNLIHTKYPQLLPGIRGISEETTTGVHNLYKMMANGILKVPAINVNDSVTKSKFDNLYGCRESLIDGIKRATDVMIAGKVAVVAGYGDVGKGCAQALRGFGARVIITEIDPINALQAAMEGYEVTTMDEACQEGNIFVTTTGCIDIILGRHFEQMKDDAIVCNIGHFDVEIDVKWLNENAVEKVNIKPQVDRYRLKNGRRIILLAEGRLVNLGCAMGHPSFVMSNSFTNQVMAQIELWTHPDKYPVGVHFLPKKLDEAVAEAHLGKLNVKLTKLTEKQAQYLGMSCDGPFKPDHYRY

Turning to `OC[C@H]1OC(n2cncc2-c2cc(O)ncn2)[C@H](O)[C@@H]1O` (stereo not given in full), on Adenosylhomocysteinase [1], the Ki – broadly, the dissociation constant of the complex between target and ligand, obtained from inhibition or displacement – is 422 µM.

On to `Nc1nc(O)cc(-c2cncn2C2O[C@H](CO)[C@@H](O)[C@H]2O)n1` (stereo not given in full), for which the Ki came to 128 µM on Adenosylhomocysteinase [2] and 217 µM on Adenosylhomocysteinase [3].

As to `Nc1nc2c(ncn2[C@@H]2O[C@H](CO)[C@@H](O)[C@H]2O)c(=O)[nH]1` [GUANOSINE], the inhibitory constant (Ki) at Adenosylhomocysteinase [1] is 1470 µM.

On Adenosylhomocysteinase [1], `OC[C@H]1O[C@@H](n2cnc3c(O)ncnc32)[C@H](O)[C@@H]1O` [INOSINE] gave a Ki of 925 µM.

The values above are taken from ChEMBL document CHEMBL1136535, “Unexpected inhibition of S-adenosyl-L-homocysteine hydrolase by a guanosine nucleoside” (Bioorg Med Chem Lett, 2003).
